Results: PubChem BioAssay AID248 (DTP/NCI, 2004)
Values joined by “and” are separate entries in the source; they are usually repeats but may differ in a detail not shown here. Equal values may be shown once. Inconclusive results and toxic doses are left out. Cut-off read from the data, not from the text of the source: active = T/C of 150% or more; inactive = T/C below 125%.

System: L1210 leukemia ip in BDF1 mice, survival T/C
Assay: NCI In Vivo Anticancer Drug Screen. Data for tumor model L1210 Leukemia (intraperitoneal) in B6D2F1 (BDF1) mice
Details: endpoint: mean survival time, higher = longer survival
Summary of the method: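 Ratio derived from survival: compound-dosed mice over vehicle-dosed mice, all bearing a transplantable tumor.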

[1] = dose: 100.0 mg/kg/injection, schedule: Q01DX001 (ip), vehicle: saline
[2] = dose: 200.0 mg/kg/injection, schedule: Q01DX001 (ip), vehicle: saline
[3] = dose: 400.0 mg/kg/injection, schedule: Q01DX001 (ip), vehicle: saline
[4] = dose: 100.0 mg/kg/injection, schedule: Q01DX001 (ip), vehicle: other
[5] = dose: 200.0 mg/kg/injection, schedule: Q01DX001 (ip), vehicle: other
[6] = dose: 400.0 mg/kg/injection, schedule: Q01DX001 (ip), vehicle: other
[7] = dose: 100.0 mg/kg/injection, schedule: Q04DX003 (ip), vehicle: saline with Tween-80
[8] = dose: 200.0 mg/kg/injection, schedule: Q04DX003 (ip), vehicle: saline with Tween-80
[9] = dose: 400.0 mg/kg/injection, schedule: Q04DX003 (ip), vehicle: saline with Tween-80
[10] = dose: 100.0 mg/kg/injection, schedule: Q01DX001 (ip), vehicle: saline with Tween-80
[11] = dose: 200.0 mg/kg/injection, schedule: Q01DX001 (ip), vehicle: saline with Tween-80
[12] = dose: 400.0 mg/kg/injection, schedule: Q01DX001 (ip), vehicle: saline with Tween-80
[13] = dose: 100.0 mg/kg/injection, schedule: Q01DX009 (ip), vehicle: saline with Tween-80
[14] = dose: 100.0 mg/kg/injection, schedule: Q04DX002 (ip), vehicle: saline with Tween-80
[15] = dose: 200.0 mg/kg/injection, schedule: Q01DX009 (ip), vehicle: saline with Tween-80
[16] = dose: 200.0 mg/kg/injection, schedule: Q04DX002 (ip), vehicle: saline with Tween-80
[17] = dose: 400.0 mg/kg/injection, schedule: Q04DX002 (ip), vehicle: saline with Tween-80
[18] = dose: 100.0 mg/kg/injection, schedule: Q01DX001 (ip), vehicle: carboxymethylcellulose (CMC)
[19] = dose: 200.0 mg/kg/injection, schedule: Q01DX001 (ip), vehicle: carboxymethylcellulose (CMC)
[20] = dose: 400.0 mg/kg/injection, schedule: Q01DX001 (ip), vehicle: carboxymethylcellulose (CMC)
[21] = dose: 400.0 mg/kg/injection, schedule: Q01DX009 (ip), vehicle: saline with Tween-80
[22] = dose: 100.0 mg/kg/injection, schedule: Q01DX009 (ip), vehicle: Klucel (hydroxypropylcellulose) (HPC)
[23] = dose: 100.0 mg/kg/injection, schedule: Q04DX003 (ip), vehicle: Klucel (hydroxypropylcellulose) (HPC)
[24] = dose: 200.0 mg/kg/injection, schedule: Q01DX009 (ip), vehicle: Klucel (hydroxypropylcellulose) (HPC)
[25] = dose: 200.0 mg/kg/injection, schedule: Q04DX003 (ip), vehicle: Klucel (hydroxypropylcellulose) (HPC)
[26] = dose: 400.0 mg/kg/injection, schedule: Q01DX009 (ip), vehicle: Klucel (hydroxypropylcellulose) (HPC)
[27] = dose: 400.0 mg/kg/injection, schedule: Q04DX003 (ip), vehicle: Klucel (hydroxypropylcellulose) (HPC)
[28] = dose: 100.0 mg/kg/injection, schedule: Q01DX009 (ip), vehicle: saline
[29] = dose: 100.0 mg/kg/injection, schedule: Q04DX003 (ip), vehicle: saline
[30] = dose: 200.0 mg/kg/injection, schedule: Q01DX009 (ip), vehicle: saline
[31] = dose: 200.0 mg/kg/injection, schedule: Q04DX003 (ip), vehicle: saline
[32] = dose: 400.0 mg/kg/injection, schedule: Q01DX009 (ip), vehicle: saline
[33] = dose: 400.0 mg/kg/injection, schedule: Q04DX003 (ip), vehicle: saline

Measured: T/C

CC(=O)CC(C)(C)C
inactive: [1] 102 % of control | [2] 98 % of control | [3] 91 % of control

Oc1[nH]c(=S)sc1/C=C1\C=NN=N1
inactive: [4] 108 % of control | [5] 97 % of control | [6] 101 % of control

CCc1oc(N)nc1-c1ccccc1
inactive: [7] 105 % of control | [8] 101 % of control | [9] 97 % of control

O=[N+]([O-])c1ccc(NN=C(C2CC2)C2CC2)c([N+](=O)[O-])c1
inactive: [4] 95 % of control | [5] 98 % of control | [6] 88 % of control

CC(C)SP(=S)(C(C)C)C(C)C
inactive: [10] 115 % of control | [11] 102 % of control | [12] 94 % of control

COc1cc(C(=O)O)cc(OC)n1
inactive: [7] 102 % of control | [8] 96 % of control | [9] 96 % of control

CCOC(=O)c1ccc(NC(=O)c2ccc(Cl)cc2Cl)cc1
inactive: dose: 50.0 mg/kg/injection, schedule: Q04DX003 (ip), vehicle: saline with Tween-80 102 % of control | [13] 96 % of control and 90 % of control | [14] 93 % of control and 113 % of control | [7] 98 % of control | [15] 97 % of control and 110 % of control | [16] 95 % of control and 91 % of control | [8] 98 % of control | [17] 102 % of control and 92 % of control

NC1=NC(=O)/C(=C/c2ccccc2)S1
inactive: [18] 100 % of control | [13] 90 % of control | [19] 89 % of control | [15] 91 % of control | [20] 86 % of control

CCCCCCCC(N)=O
inactive: dose: 50.0 mg/kg/injection, schedule: Q01DX009 (ip), vehicle: saline with Tween-80 97 % of control | [13] 107 % of control and 90 % of control | [7] 100 % of control | [15] 97 % of control and 106 % of control | [8] 93 % of control | [21] 114 % of control | [9] 91 % of control

COC(C)C(O)(C(N)=O)C(C)C (stereo unspecified)
inactive: [22] 98 % of control | [23] 101 % of control | [24] 98 % of control | [25] 101 % of control | [26] 102 % of control | [27] 97 % of control

O=c1ccnc(SCc2ccc(Cl)cc2)[nH]1
inactive: dose: 110.0 mg/kg/injection, schedule: Q01DX Z (ip), vehicle: methylcellulose (MC) 87 % of control

Oc1ccccc1C1CCCCC1
inactive: dose: 12.5 mg/kg/injection, schedule: Q01DX009 (ip), vehicle: gum acacia 102 % of control | dose: 25.0 mg/kg/injection, schedule: Q01DX009 (ip), vehicle: gum acacia 100 % of control | dose: 50.0 mg/kg/injection, schedule: Q01DX009 (ip), vehicle: gum acacia 98 % of control

O=C(COc1ccc(Cl)c(Cl)c1)Nc1ccc[n+](Cc2c(Cl)cccc2S(=O)(=O)F)c1
inactive: [1] 88 % of control | [2] 101 % of control

O=C1C(Cl)=C(N2CCOCC2)C(=O)C(Cl)=C1N1CCOCC1
inactive: dose: 50.0 mg/kg/injection, schedule: Q01DX001 (ip), vehicle: carboxymethylcellulose (CMC) 94 % of control | [18] 92 % of control | [19] 99 % of control | [20] 97 % of control

O=[N+]([O-])c1ccc(O)c(/C=N/Nc2c3ccccc3nc3ccccc23)c1
inactive: [1] 103 % of control | [2] 95 % of control | [3] 92 % of control

Cc1ccc(S(=O)(=O)OCC(c2ccccc2)C(F)(F)F)cc1 (stereo unspecified)
inactive: [10] 94 % of control | [11] 100 % of control | [12] 101 % of control

CC(=O)c1cccc(NC(=O)Oc2ccc(-c3ccccc3)cc2)c1
inactive: [10] 98 % of control | [13] 100 % of control and 90 % of control | [14] 96 % of control and 98 % of control | [7] 90 % of control | [11] 90 % of control | [15] 95 % of control | [16] 93 % of control and 98 % of control | [8] 92 % of control | [21] 90 % of control | [17] 91 % of control | [9] 93 % of control

COC(=O)c1nc(N)n[nH]1
inactive: [4] 110 % of control | [13] 106 % of control | dose: 100.0 mg/kg/injection, schedule: Q04DX003 (ip), vehicle: other 102 % of control | [5] 95 % of control | [15] 94 % of control | dose: 200.0 mg/kg/injection, schedule: Q04DX003 (ip), vehicle: other 105 % of control | [6] 97 % of control | [21] 95 % of control | dose: 400.0 mg/kg/injection, schedule: Q04DX003 (ip), vehicle: other 102 % of control

Nc1cccnn1
inactive: [28] 99 % of control | [29] 109 % of control | [30] 99 % of control | [31] 117 % of control | [32] 103 % of control | [33] 120 % of control

CC(c1ccccc1)n1ccnc1CC#N (stereo unspecified)
inactive: dose: 12.5 mg/kg/injection, schedule: Q01DX009 (ip), vehicle: saline 109 % of control and 88 % of control | dose: 12.5 mg/kg/injection, schedule: Q04DX002 (ip), vehicle: saline 91 % of control | dose: 25.0 mg/kg/injection, schedule: Q01DX001 (ip), vehicle: saline 100 % of control | dose: 25.0 mg/kg/injection, schedule: Q01DX009 (ip), vehicle: saline 107 % of control and 114 % of control | dose: 25.0 mg/kg/injection, schedule: Q04DX002 (ip), vehicle: saline 101 % of control and 105 % of control and 109 % of control | dose: 25.0 mg/kg/injection, schedule: Q04DX003 (ip), vehicle: saline 88 % of control | dose: 50.0 mg/kg/injection, schedule: Q01DX001 (ip), vehicle: saline 101 % of control | dose: 50.0 mg/kg/injection, schedule: Q01DX009 (ip), vehicle: saline 97 % of control and 98 % of control | dose: 50.0 mg/kg/injection, schedule: Q04DX002 (ip), vehicle: saline 95 % of control and 96 % of control and 102 % of control | dose: 50.0 mg/kg/injection, schedule: Q04DX003 (ip), vehicle: saline 93 % of control

O=S(=O)(O)c1cc(O)c2ccccc2c1
inactive: [28] 90 % of control | [29] 109 % of control | [30] 90 % of control | [31] 109 % of control | [32] 95 % of control | [33] 109 % of control

COc1cccc2c1C(=O)c1c(O)c3c(c(O)c1C2=O)C[C@@](O)(C(=O)COC(=O)Cc1ccccc1)C[C@@H]3OC1CC(N)C(O)C(C)O1 (stereo partly specified)
active: dose: 1.3 mg/kg/injection, schedule: Q01DX009 (ip), vehicle: saline 152 % of control | dose: 2.0 mg/kg/injection, schedule: Q01DX009 (ip), vehicle: saline 167 % of control | dose: 3.0 mg/kg/injection, schedule: Q01DX009 (ip), vehicle: saline 173 % of control
inactive: dose: 6.8 mg/kg/injection, schedule: Q01DX009 (ip), vehicle: saline with Tween-80 104 % of control

CC1C2C=CC(C2)C1C(=O)O (stereo unspecified)
inactive: [18] 98 % of control | [7] 96 % of control and 97 % of control and 88 % of control | [19] 96 % of control | [8] 89 % of control and 92 % of control and 91 % of control | [20] 96 % of control | [9] 99 % of control and 97 % of control

Cc1ccccc1OCC(=O)Nc1cccc(NC(=O)COc2ccccc2C)c1
inactive: dose: 50.0 mg/kg/injection, schedule: Q04DX002 (sc), vehicle: olive oil, sesame oil, peanut oil 110 % of control | dose: 100.0 mg/kg/injection, schedule: Q04DX002 (sc), vehicle: olive oil, sesame oil, peanut oil 100 % of control | dose: 200.0 mg/kg/injection, schedule: Q04DX002 (sc), vehicle: olive oil, sesame oil, peanut oil 95 % of control

CC(C)(C)OC(=O)NNC(=O)C(CSC(c1ccccc1)c1ccccc1)N1C(=O)c2ccccc2C1=O (stereo unspecified)
inactive: [22] 101 % of control | [23] 90 % of control | [24] 94 % of control | [25] 94 % of control | [26] 101 % of control | [27] 99 % of control
